Source: patent US20050020576A1, “Kappa agonist compounds and pharmaceutical formulations thereof” (priority 1996, published 2005)
Values joined by “and” are separate entries in the source; they are usually repeats but may differ in a detail not shown here. Equal values may be shown once. Where a name gives a salt, the structure may show the parent alone. Read-outs that look alike come from different tables or passages of the source.

Assays:
[1] = molecular target: cloned human kappa receptor (Homo sapiens, UniProt P41145); assay: biochemical; assay type: binding
[2] = tested on: formalin-induced flinching; assay: animal or person; assay type: in vivo, male Sprague-Dawley rats; conditions: for inhibition in vivo at 0.3 µM: Rattus norvegicus, read-out: Formalin (% A @ 300 nM) i. paw
[3] = Table IA, read-out: Ki(nM) (3H)-Diprenorphin

Sequence of cloned human kappa receptor (P41145 whole entry): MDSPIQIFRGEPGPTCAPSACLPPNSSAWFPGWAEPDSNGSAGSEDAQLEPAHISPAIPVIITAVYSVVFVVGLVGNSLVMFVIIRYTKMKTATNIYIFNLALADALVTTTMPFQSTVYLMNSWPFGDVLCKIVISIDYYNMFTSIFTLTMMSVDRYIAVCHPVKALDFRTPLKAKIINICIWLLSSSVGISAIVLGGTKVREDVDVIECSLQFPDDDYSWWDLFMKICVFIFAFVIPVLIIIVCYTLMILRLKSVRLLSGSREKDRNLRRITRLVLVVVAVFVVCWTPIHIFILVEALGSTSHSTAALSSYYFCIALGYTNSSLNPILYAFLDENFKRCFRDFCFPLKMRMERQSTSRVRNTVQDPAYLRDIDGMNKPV

Structure (SMILES)	Ki ([1]; Ki, nM 3H-Diprenorphin)	inhibition in vivo at 0.3 µM [2] [%]	melting point	also measured
COC(=O)N1CCN(C(=O)Cc2ccc(Cl)c(Cl)c2)C(CN2CCC[C@H]2COC(=O)Cc2ccc(Cl)c(Cl)c2)C1 (mixture of isomers) [Example 1k, Methyl-4-[(3,4-dichlorophenyl)acetyl]-3-(R,S)-[(2-(S)-pyrrolidinemethyl-3′,4′-dichlorophenyl acetate)methyl]-1-piperazinecarboxylate hydrochloride]	51.5 nM	95	–	–
CS(=O)(=O)N1CCN(C(=O)Cc2ccc(Cl)c(Cl)c2)C(CN2CC[C@H](O)C2)C1 (mixture of isomers) [Example 1ll, 4-Methylsulphonyl-1-[(3,4-dichlorophenyl)acetyl]-2-(R,S)-[(3-(S)-hydroxy-1-pyrrolidinyl)methyl]piperazine hydrochloride]	2.86 nM	52	–	–
COC(=O)N1CCN(C(=O)Cc2ccc(C(F)(F)F)cc2[N+](=O)[O-])C(CN2CCC[C@H]2CO)C1 (mixture of isomers) [Example 1m, Methyl-4-[(2-nitro-4-α,α,α-trifluoromethylphenyl)acetyl]-3-(R,S)-[(2-(S)-pyrrolidinemethanol)methyl]-1-piperazinecarboxylate hydrochloride]	49.5 nM	–	–	Formalin A50 mg/kg s.c. ([2]; rat, in vivo, sc): 1.7 mg/kg
COC(=O)N1CCN(C(=O)Cc2ccc(S(C)(=O)=O)cc2)C(CN2CCC[C@H]2CO)C1 (mixture of isomers) [Example 1o, Methyl-4-[(4-methylsulphonylphenyl)acetyl]-3-(R,S)-[(2-(S)-pyrrolidinemethanol)methyl]-1-piperazinecarboxylate hydrochloride]	–	41	–	Ki [1, 3]: 133 nM
COC(=O)N1CCN(C(=O)Cc2ccc(Cl)c(Cl)c2)C(CN2CC[C@H](OC(=O)Cc3ccc(Cl)c(Cl)c3)C2)C1 (mixture of isomers) [Example 1q, Methyl-4-[(3,4-dichlorophenyl)acetyl]-2-(R,S)-[3-(S)-(3′,4′-dichlorophenyl acetate)-1-(pyrrolidinyl)methyl]-1-piperazinecarboxylate hydrochloride]	5.2 nM	98	–	–
CC(=O)N1CCN(C(=O)Cc2ccc(Cl)c(Cl)c2)C(CN2CC[C@H](OC(=O)Cc3ccc(Cl)c(Cl)c3)C2)C1 (mixture of isomers) [Example 1w, 4-Acetyl-1-[(3,4-dichlorophenyl)acetyl]-2-(R,S)-[3-(S)-(3′,4′-dichlorophenyl acetate)-1-(pyrrolidinyl)methyl]piperazine hydrochloride]	–	60	–	Ki [1, 3]: 1160 nM
CC(=O)N1CCN(C(=O)Cc2ccc(Cl)c(Cl)c2)C(CN2CCC[C@H]2CO)C1 (mixture of isomers) [Example 1z, 4-Acetyl-1-[(3,4-dichlorophenyl)acetyl]-2-(R,S)-[(2-(S)-pyrrolidinemethanol)methyl]piperazine hydrochloride]	–	71	–	Ki [1, 3]: 102 nM
CNS(=O)(=O)c1ccc(CC(=O)N2CCN(C(=O)OC)CC2CN2CCCC2)cc1 (racemic) (as salt: hydrochloride) [Example 1f, Methyl-4-[-4-[N-methylamino)sulfamyl]phenyl)acetyl]-3-(R,S)-[(1-pyrrolidinyl)methyl]-1-piperazinecarboxylate hydrochloride]	–	–	135 to 140 °C	–
O=C(Cc1ccc(C(F)(F)F)cc1)N1CCN(C(=O)C(F)(F)F)CC1CN1CCCC1 (racemic) (as salt: hydrochloride) [Example 1h, 4-Trifluoroacetyl-1-[(-4-trifluoromethylphenyl)acetyl]-2-(R,S)-(1-pyrrolidinyl)methyl]piperazine hydrochloride]	–	–	140 to 145 °C	–
CN(C(=O)Cc1ccc(Cl)c(Cl)c1)[C@H](CN1CCCC1)c1cccc(NS(N)(=O)=O)c1 (racemic) (as salt: hydrochloride) [Example 3c, 2-(3,4-Dichlorophenyl)-N-methyl-N-[(1R,S)-1-(3-sulfamidophenyl)-2-(1-pyrrolidinyl)ethyl]acetamide hydrochloride]	–	–	198 to 200 °C	–
COc1ccc(C(CN2CCCC2)N(C)C(=O)Cc2ccccc2NS(C)(=O)=O)cc1 (racemic) (as salt: salt) [Example 128]	–	–	170 to 172 °C	–
CNS(=O)(=O)c1ccccc1CC(=O)N(C)C(CN1CCCC1)c1ccccc1F (racemic) (as salt: salt) [Example 147]	–	–	232 to 234 °C	–
COc1cccc(C(CN2CCCC2)N(C)C(=O)Cc2ccccc2NS(C)(=O)=O)c1 (racemic) (as salt: sulfonic acid salt) [Example 3uu, (R,S)-1-[2-(Methanesulfonylamino)phenyl-N-methylacetamido]-1-(3-methoxyphenyl)-2-(1-pyrrolidino)-ethane, methanesulfonic acid salt]	–	–	135 °C (dec.)	–
CN(C(=O)Cc1ccccc1NS(C)(=O)=O)C(CN1CCCC1)c1cccc(O)c1 (racemic) (as salt: sulfonic acid salt) [Example 3vv, (R,S)-1-[2-(Methanesulfonylamino)phenyl-N-methylacetamido]-1-(3-hydroxyphenyl)-2-(1-pyrrolidino)-ethane, methanesulfonic acid salt]	–	–	232 to 234 °C	–
CC(=O)N1CCN(C(=O)Cc2ccc(C(F)(F)F)cc2)C(CN2CCCC2)C1 (racemic) [(R,S-10b), hydrochloride]	26 nM and 24 nM	–	–	Late Phase Formalin, % @ 300; i.paw ([2]; rat, in vivo): 89% @ 300
COC(=O)N1CCN(C(=O)Cc2ccc(C(F)(F)F)cc2NCC(=O)O)C(CN2CCCC2)C1 (racemic) [Example 1a, Methyl-4-[-2-glycyl-4-(trifluoromethylphenyl)acetyl]-3-(R,S)-[(1-pyrrolidinyl)-methyl]-1-piperazinecarboxylate]	–	–	165 to 170 °C	Ki [1, 3]: 248 nM
COC(=O)N1CCN(C(=O)Cc2ccccc2N(S(C)(=O)=O)S(C)(=O)=O)C(CN2CCCC2)C1 (racemic) [Example 1d, Methyl-4-[(2-[N,N-bis-methylsulfonamido]phenyl)acetyl]-3-(R,S)-[(1-pyrrolidinyl)methyl]-1-piperazinecarboxylate hydrochloride]	7.6 nM	77	–	–
CNS(=O)(=O)c1ccccc1CC(=O)N1CCN(C(=O)OC)CC1CN1CCCC1 (racemic) [Example 1e, Methyl-4-[(2-[N-methylamino)sulfamyl]phenyl)acetyl]-3-(R,S)-[(1-pyrrolidinyl)methyl]-1-piperazinecarboxylate hydrochloride]	14 nM	55	–	–
O=C(Cc1ccc(C(F)(F)F)cc1)N1CCN(C(=O)C(F)(F)F)CC1CN1CCCC1 (racemic) [Example 1h, 4-Trifluoroacetyl-1-[(-4-trifluoromethylphenyl)acetyl]-2-(R,S)-(1-pyrrolidinyl)methyl]piperazine hydrochloride]	50 nM	100	–	–
CN(C(=O)Cc1ccc(Cl)c(Cl)c1)[C@H](CN1CCCC1)c1cccc(NS(N)(=O)=O)c1 (racemic) [Example 3c, 2-(3,4-Dichlorophenyl)-N-methyl-N-[(1R,S)-1-(3-sulfamidophenyl)-2-(1-pyrrolidinyl)ethyl]acetamide hydrochloride]	–	–	–	Ki ([1]; Ki (nM) [3H]-Diprenorphin κ): 0.12 nM; Late Phase Formalin A50 ([2]; rat, in vivo): 0.27 mg/kg
CNS(=O)(=O)c1cc(CC(=O)N(C)[C@@H]2CCCC[C@H]2N2CCCC2)ccc1F.Cl (racemic) [Example 4i, (±)-trans-4-Fluoro-3-methylsulfamoyl-N-methyl-N-[2-(1-pyrrolidinyl)cyclohexyl]phenylacetamide hydrochloride]	–	–	265 to 267 °C	[3H]-Diprenorphin, % @ 1 μM [1]: 31% @ 1 μM
COc1ccc(C(CN2CCCC2)N(C)C(=O)Cc2ccccc2NS(C)(=O)=O)cc1 (racemic) [Example 128]	–	–	–	Ki ([1]; Table IIIB, read-out: Ki(nM) [3H]-Diprenorphin κ): 110 nM; Late Phase Formalin (i. paw), % @ 300 ([2]; rat, in vivo): 56% @ 300
CN(C(=O)Cc1ccccc1NS(C)(=O)=O)C(CN1CCCC1)c1ccc(O)cc1 (racemic) [Example 129A, (R,S)-2-(2-N-Methylsulfonamido-2-aminophenyl)-N-methyl-N-1-(4-hydroxyphenyl)-2-(1-pyrrolidinyl)ethyl]acetamide]	–	–	–	Ki ([1]; Ki (nM) [3H]-Diprenorphin κ): 59 nM; Late Phase Formalin (i. paw), % @ 300 ([2]; rat, in vivo): 46% @ 300
CNS(=O)(=O)c1ccccc1CC(=O)N(C)C(CN1CCCC1)c1ccccc1F (racemic) [Example 147]	–	–	–	Ki ([1]; Ki (nM) [3H]-Diprenorphin κ): 10 nM; Late Phase Formalin (i. paw), % @ 300 ([2]; rat, in vivo): 56% @ 300
CN(C(=O)Cc1ccc(Cl)c(Cl)c1)[C@@H]1c2cc(N(CC(=O)O)CC(=O)O)ccc2CC[C@H]1N1CCCC1 (relative stereo) (as salt: HCl)	–	–	160 °C (dec.)	–
C=CCN1CCN(C(=O)Cc2ccc(Cl)c(Cl)c2)[C@H](CN2CCCC2)C1 [Example 1ff, 4-Allyl-1-[(3,4-dichlorophenyl)acetyl]-2-(R)-[(1-pyrrolidinyl)methyl]piperazine hydrochloride]	0.58 nM	98	–	–
COC(=O)N1CCN(C(=O)Cc2ccc(Cl)c(Cl)c2)[C@@H](CN2CCC[C@H]2CO)C1 [Example 1ii, Methyl-4-[(3,4-dichlorophenyl)acetyl]-3-(S)-[(2-(S)-pyrrolidinemethanol)methyl]-1-piperazinecarboxlate hydrochloride]	21.5 nM	60	–	–
CNS(=O)(=O)c1cccc(CC(=O)N(C)[C@H](CN2CCCC2)c2ccccc2)c1.Cl [Example 3q, 3-(N-Methylsulfamoyl)-phenyl-N-methyl-N-[(1S)-1-phenyl-2-(1-pyrrolidinyl)ethyl]acetamide hydrochloride]	–	–	> 250 °C (dec.)	Ki ([1]; Ki (nM) [3H]-Diprenorphin κ): 3.2 nM
CN(C(=O)C(c1ccccc1)c1ccccc1)[C@H](CN1CC[C@H](O)C1)c1ccccc1 [III-43, reference compound]	–	–	–	Late Phase Formalin A50, mg/ms (i-paw) ([2]; rat, in vivo): 59 mg/ms (i-paw) 28 mg/kg (sc); Late Phase Formalin A50, mg/kg (sc) ([2]; rat, in vivo, sc): 59 mg/ms (i-paw) 28 mg/kg (sc)
